Where two headings read alike, the source gives them in different places.
How the values were obtained:
[1] = test system: human G12D mutant KRAS-positive pancreatic cancer line AsPC-1; test: Test Example 3: non-anchorage-dependent cell growth inhibition, spheroid 3D cell culture; type: cell-based; settings: Homo sapiens, ASPC1, 144 h, AsPC-1 spheroid 3D culture, 6 days, CellTiter Glo 2.0
Description: Test Example 3: Evaluation of Non-Anchorage-Dependent Cell Growth Inhibition Action on Human G12D Mutant KRAS-Positive Pancreatic Cancer Line AsPC-1
The non-anchorage-dependent cell growth inhibition action of test compounds was evaluated by spheroid 3D cell culture.
AsPC-1 cells were seeded on a low-cell-adhesive round bottom 384-well plate (PrimeSurface: from Sumitomo Bakelite) at 36 μL/well to give 5×10^2 cells per well. The cell culture was performed under the same conditions as in the Test Example 2.
The next day, the test compounds (6 points having final concentrations in the range of 10 μM to 3.0 nM) and DMSO, which was the solvent for the test compounds, as a negative control were diluted 100-fold with a fresh medium and were added at 4 μL per well. After culturing in the presence of […] at 37° C. for 6 days, CellTiter Glo 2.0 (from Promega) was added at 20 μL per well. After stirring with a plate mixer (from FINEPCR) at normal temperature for 1 hour, the luminescent signals were measured with ARVO X3 (from PerkinElmer).
With the signaling value in treatment with DMSO taken as […] and with the signaling value in the medium alone without cells taken as […], the […] inhibition values (IC50) were calculated by Sigmoid-Emax model nonlinear regression analysis. The molecular weights of the test compounds were calculated as the molecular weights of the dihydrochloride for Example No. 22, the trihydrochlorides for Example Nos. 2-7, 9-12, 14-18 and 30, the tetrahydrochlorides for Example Nos. 19 and 46, the pentahydrochloride for Example No. 21 and the free forms forming no salt for the remaining Example Nos. The results for some test compounds of the formula (I) are shown in Table 4.

[2] = test system: phosphorylation of ERK (Thr202/Tyr204); test: Test Example 2: ERK phosphorylation inhibition action in AsPC-1, Cell ELISA; type: cell-based, human; settings: Homo sapiens, ASPC1, 24 h, AsPC-1 cells, 0% = 1 μM trametinib
Description: Test Example 2: Evaluation of ERK Phosphorylation Inhibition Action on Human G12D Mutant KRAS-Positive Pancreatic Cancer Line AsPC-1
The ERK phosphorylation inhibition action of test compounds was evaluated by measuring phosphorylation of the 202th threonine (Thr202) and the 204th tyrosine (Tyr204) of ERK located downstream of the KRAS signal by Cell ELISA.
AsPC-1 cells were seeded on a 384-well plate (from Greiner bio-one) at 36 μL/well to give 2.0×10^4 cells per well. As for the cell culture conditions, a RPMI 1640 medium containing 10% fetal bovine serum was used in the presence of 5% CO2 at 37° C.
The next day, the test compounds (6 points having final concentrations in the range of 10 μM to 3.0 nM), trametinib (MEK inhibitor) of a final concentration of 1 μM as a positive control and DMSO, which was the solvent for the test compounds, as a negative control were diluted 100-fold with a fresh medium and were added at 4 μL per well. The cells were then cultured for 24 hours. After culturing, a 30% glyoxal solution (40% glyoxal [from Nacalai Tesque] was diluted with PBS) was quickly added at 30 μL per well, and the plate was allowed to stand for 90 minutes at room temperature to thus immobilize the cells. Then, the plate was centrifuged to remove the supernatant (using a centrifugal dehydrator machine, the supernatant was removed by the same method hereinafter), and 0.1% Triton X-100-containing PBS was added at 20 μL per well. After allowing to stand for 10 minutes at room temperature, the supernatant was removed by centrifugation, and the same operation was further repeated. Next, 0.5% SDS-containing PBS was added at 20 μL per well, and after allowing to stand at room temperature for 30 minutes, the supernatant was removed by centrifugation. Subsequently, a blocking solution (Intercept Blocking Buffer) was added at 20 μL per well, and the plate was allowed to stand for 1 hour at room temperature. The supernatant was removed by centrifugation, and an ERK (Thr202/Tyr204) phosphorylation antibody (Phospho-p44/42 MAPK (Erk 1/2) (Thr202/Tyr204) (D13.14.4E) XP Rabbit mAb; from Cell Signaling Technology) diluted 2,500-fold with a blocking solution was added at 10 or 15 μL per well as a primary antibody. The plate was allowed to stand at 4° C. overnight.
The next day, the plate was centrifuged to remove the supernatant. 0.05% Tween-20-containing PBS was added at 50 μL per well, and the supernatant was removed by centrifugation to thus wash each well. The washing was performed three times in total. After washing, Goat anti-Rabbit IgG H&L (IRDye 800CW) diluted 1,000-fold with a blocking solution was added at […] as a secondary antibody, and the plate was allowed to stand for 1 hour at room temperature. The plate was centrifuged to remove the supernatant, and each well was washed three times with 0.05% Tween-20-containing PBS in the same manner as after the primary antibody reaction. After removing the supernatant by centrifuging the plate, the plate was dried as it was with air at room temperature for 3 hours or more, and the 800-nm fluorescent signals were measured with Aerius.
With the signaling value at the time of addition of DMSO taken as 100% and with the signaling value at the time of addition of 1 μM trametinib taken as 0%, the 50% inhibition values (IC50) were calculated by Sigmoid-Emax model nonlinear regression analysis. The molecular weights of the test compounds were calculated as the molecular weights of the dihydrochloride for Example No. 22, the trihydrochlorides for Example Nos. 2-7, 9-12, 14-18 and 30, the tetrahydrochlorides for Example Nos. 19 and 46, the pentahydrochloride for Example No. 21 and the free forms forming no salt for the remaining Example Nos. The results for some test compounds of the formula (I) are shown in Table 3.

SMILES	IC50 [1] [nM]	IC50 [2] [nM]	IC50 ([1]; read-out: IC50) [nM]	IC50 ([2]; read-out: IC50) [nM]
Cc1ncsc1-c1ccc([C@H](CO)NC(=O)[C@@H]2C[C@@H](O)CN2C(=O)[C@H](C(C)C)n2cc(-c3ccc(COc4c(-c5c(C)c(F)cc6[nH]ncc56)c(C5CC5)cc5c(N6C[C@@H]7C[C@H]6CN7)nc(O[C@@H]6CCOC6)nc45)cc3)nn2)cc1 [Example 28]	37	12	–	–
COC[C@H](CN1CCOCC1)Oc1nc(N2C[C@@H]3C[C@H]2CN3)c2cc(C3CC3)c(-c3c(C)c(F)cc4[nH]ncc34)c(OCc3ccc(-c4cn([C@H](C(=O)N5C[C@H](O)C[C@H]5C(=O)N[C@@H](CO)c5ccc(-c6scnc6C)cc5)C(C)C)nn4)cc3)c2n1 [Example 55]	–	–	76	38
CO[C@@H](C)COc1nc(N2C[C@@H]3C[C@H]2CN3)c2cc(C3CC3)c(-c3c(C)c(F)cc4[nH]ncc34)c(OCc3ccc(-c4cn([C@H](C(=O)N5C[C@H](O)C[C@H]5C(=O)N[C@@H](CO)c5ccc(N6CCOC6=O)cc5)C(C)C)nn4)cc3)c2n1 [Example 59]	70	26	–	–
COCC1(COc2nc(N3C[C@@H]4C[C@H]3CN4)c3cc(C4CC4)c(-c4c(C)c(F)cc5[nH]ncc45)c(OCc4ccc(-c5cn([C@H](C(=O)N6C[C@H](O)C[C@H]6C(=O)N[C@@H](CO)c6ccc(-c7scnc7C)cc6)C(C)C)nn5)cc4)c3n2)CC1 [Example 62]	34	15	–	–
Cc1ncsc1-c1ccc([C@H](CO)NC(=O)[C@@H]2C[C@@H](O)CN2C(=O)[C@H](C(C)C)n2cc(-c3ccc(COc4c(-c5c(C)c(F)cc6[nH]ncc56)c(C5CC5)cc5c(N6C[C@@H]7C[C@H]6CN7)nc(O[C@H]6CCOC6)nc45)cc3)nn2)cc1 [Example 29]	42	15	–	–
Cc1ncsc1-c1ccc([C@H](CO)NC(=O)[C@@H]2C[C@@H](O)CN2C(=O)[C@H](C(C)C)n2cc(-c3ccc(COc4c(-c5c(C)c(F)cc6[nH]ncc56)c(C5CC5)cc5c(N6C[C@@H]7C[C@H]6CN7)nc(OC6COC6)nc45)cc3)nn2)cc1 [Example 27]	103	27	–	–
Cc1ncsc1-c1ccc([C@H](CO)NC(=O)[C@@H]2C[C@@H](O)CN2C(=O)[C@H](C(C)C)n2cc(-c3ccc(COc4c(-c5c(C)c(F)cc6[nH]ncc56)c(C5CC5)cc5c(N6C[C@@H]7C[C@H]6CN7)nc(O[C@H](C)[C@@H](C)O)nc45)cc3)nn2)cc1 (atropisomer, axis not shown) [Example 37]	19	18	–	–
CO[C@@H](C)COc1nc(N2C[C@@H]3C[C@H]2CN3)c2cc(C3CC3)c(-c3c(C)c(F)cc4[nH]ncc34)c(OCc3ccc(-c4cn([C@H](C(=O)N5C[C@H](O)C[C@H]5C(=O)N[C@@H](CO)c5ccc(-c6scnc6C)cc5)C(C)C)nn4)cc3)c2n1 [Example 48]	20	8	–	–
CO[C@@H](C)[C@H](C)Oc1nc(N2C[C@@H]3C[C@H]2CN3)c2cc(C3CC3)c(-c3c(C)c(F)cc4[nH]ncc34)c(OCc3ccc(-c4cn([C@H](C(=O)N5C[C@H](O)C[C@H]5C(=O)N[C@@H](CO)c5ccc(-c6scnc6C)cc5)C(C)C)nn4)cc3)c2n1 [Example 41]	31	17	–	–
CCOc1nc(N2C[C@@H]3C[C@H]2CN3)c2cc(C3CC3)c(-c3c(C)c(F)cc4[nH]ncc34)c(OCc3ccc(C(=O)N[C@H](C(=O)N4C[C@H](O)C[C@H]4C(=O)N[C@@H](CO)c4ccc(-c5scnc5C)cc4)C(C)C)cc3)c2n1 [Example 5]	169	97	–	–
Cc1ncsc1-c1ccc([C@@H](CO)NC(=O)[C@@H]2C[C@@H](O)CN2C(=O)[C@H](C(C)C)n2cc(-c3ccc(COc4c(-c5c(C)c(F)cc6[nH]ncc56)c(C5CC5)cc5c(N6C[C@@H]7C[C@H]6CN7)nc(OC6CCOCC6)nc45)cc3)nn2)cc1 [Example 68]	–	–	1630	2210
Cc1ncsc1-c1ccc([C@H](CO)NC(=O)[C@@H]2C[C@@H](O)CN2C(=O)[C@H](C(C)C)n2cc(-c3ccc(COc4c(-c5c(C)c(F)cc6[nH]ncc56)c(C5CC5)cc5c(N6C[C@@H]7C[C@H]6CN7)nc(O[C@H]6CCN(CCO)C6)nc45)cc3)nn2)cc1 [Example 31]	321	194	–	–
CO[C@H](C)[C@@H](C)Oc1nc(N2C[C@@H]3C[C@H]2CN3)c2cc(C3CC3)c(-c3c(C)c(F)cc4[nH]ncc34)c(OCc3ccc(-c4cn([C@H](C(=O)N5C[C@H](O)C[C@H]5C(=O)N[C@@H](CO)c5ccc(-c6scnc6C)cc5)C(C)C)nn4)cc3)c2n1 [Example 39]	18	6	–	–
Cc1c(F)cc2[nH]ncc2c1-c1c(C2CC2)cc2c(N3C[C@@H]4C[C@H]3CN4)nc(OC3CCOCC3)nc2c1OCc1ccc(-c2cn([C@H](C(=O)N3C[C@H](O)C[C@H]3C(=O)N[C@@H](CO)c3ccc(N4CCOC4=O)cc3)C(C)C)nn2)cc1 [Example 20, (4R)-1-[(2S)-2-(4-{4-[({6-cyclopropyl-4-[(1S,4S)-2,5-diazabicyclo[2.2.1]heptan-2-yl]-7-(6-fluoro-5-methyl-1H-indazol-4-yl)-2-[(oxan-4-yl)oxy]quinazolin-8-yl}oxy)methyl]phenyl}-1H-1,2,3-triazol-1-yl)-3-methylbutanoyl]-4-hydroxy-N-{(1R)-2-hydroxy-1-[4-(2-oxo-1,3-oxazolidin-3-yl)phenyl]ethyl}-L-prolinamide]	–	–	79	36
Cc1ncsc1-c1ccc([C@H](CO)NC(=O)[C@@H]2C[C@@H](O)CN2C(=O)[C@H](C(C)C)n2cc(-c3ccc(COc4c(-c5c(C)c(F)cc6[nH]ncc56)c(C5CC5)cc5c(N6C[C@@H]7C[C@H]6CN7)nc(OC6CCN(CC(F)F)CC6)nc45)cc3)nn2)cc1 [Example 21]	–	–	47	19
Cc1ncsc1-c1ccc([C@@H](NC(=O)[C@@H]2C[C@@H](O)CN2C(=O)[C@H](C(C)C)n2cc(-c3ccc(COc4c(-c5c(C)c(F)cc6[nH]ncc56)c(C5CC5)cc5c(N6C[C@@H]7C[C@H]6CN7)nc(OC6CCOCC6)nc45)cc3)nn2)C(F)F)cc1 [Example 16]	–	–	185	67
Cc1ncsc1-c1ccc([C@H](CO)NC(=O)[C@@H]2C[C@@H](O)CN2C(=O)[C@H](C(C)C)n2cc(-c3ccc(COc4c(-c5c(C)c(F)cc6[nH]ncc56)c(C5CC5)cc5c(N6C[C@@H]7C[C@H]6CN7)nc(OC[C@H](C)N6CCOCC6)nc45)cc3)nn2)cc1 [Example 65]	45	11	–	–
